Measurements from publication PMC4823954, “From fighting depression to conquering tumors: a novel tricyclic thiazepine compound as a tubulin polymerization inhibitor” (Cell Death & Disease, 2016).

Experiments:
Assay in all cases: KINOMEscan
Type in all cases: binding
Details in all cases: read-out: % Ctrl
[1] = molecular target: T1, JAK1(JH2domain-pseudokinase) (Homo sapiens, UniProt P23458)
T1 construct: JAK1(JH2domain-pseudokinase); purchased DiscoveRx KINOMEscan
Method in brief: (§1)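 Competition binding panel of 442 non-mutant kinases: test compound at 5 and 10 μM competed with an active-site-directed ligand for 1 h with shaking. Bound kinase was eluted with 0.5 μM ligand and quantified by qPCR; %Ctrl = (compound − positive control)/(DMSO − positive control) × 100, lower meaning tighter binding.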

[2] = molecular target: T2, STK35 (Homo sapiens, UniProt Q8TDR2)
T2 construct: purchased DiscoveRx KINOMEscan
T2 sequence (Q8TDR2 whole entry): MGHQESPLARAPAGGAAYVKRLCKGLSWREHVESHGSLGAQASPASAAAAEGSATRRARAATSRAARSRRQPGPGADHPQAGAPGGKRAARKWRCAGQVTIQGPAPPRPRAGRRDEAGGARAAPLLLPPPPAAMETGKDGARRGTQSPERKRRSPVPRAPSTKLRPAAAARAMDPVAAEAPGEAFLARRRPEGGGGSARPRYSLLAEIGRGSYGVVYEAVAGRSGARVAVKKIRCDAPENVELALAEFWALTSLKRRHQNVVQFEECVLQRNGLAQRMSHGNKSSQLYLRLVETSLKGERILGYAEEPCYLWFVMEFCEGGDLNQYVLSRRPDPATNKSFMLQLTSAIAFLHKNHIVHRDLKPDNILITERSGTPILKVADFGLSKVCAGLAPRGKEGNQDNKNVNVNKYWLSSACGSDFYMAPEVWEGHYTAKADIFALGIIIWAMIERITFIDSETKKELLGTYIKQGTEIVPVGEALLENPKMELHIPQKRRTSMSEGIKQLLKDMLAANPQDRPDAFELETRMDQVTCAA
Method in brief: as §1

[3] = molecular target: T3, HIPK3 (Homo sapiens, UniProt Q9H422)
T3 construct: purchased DiscoveRx KINOMEscan
T3 sequence (Q9H422 whole entry): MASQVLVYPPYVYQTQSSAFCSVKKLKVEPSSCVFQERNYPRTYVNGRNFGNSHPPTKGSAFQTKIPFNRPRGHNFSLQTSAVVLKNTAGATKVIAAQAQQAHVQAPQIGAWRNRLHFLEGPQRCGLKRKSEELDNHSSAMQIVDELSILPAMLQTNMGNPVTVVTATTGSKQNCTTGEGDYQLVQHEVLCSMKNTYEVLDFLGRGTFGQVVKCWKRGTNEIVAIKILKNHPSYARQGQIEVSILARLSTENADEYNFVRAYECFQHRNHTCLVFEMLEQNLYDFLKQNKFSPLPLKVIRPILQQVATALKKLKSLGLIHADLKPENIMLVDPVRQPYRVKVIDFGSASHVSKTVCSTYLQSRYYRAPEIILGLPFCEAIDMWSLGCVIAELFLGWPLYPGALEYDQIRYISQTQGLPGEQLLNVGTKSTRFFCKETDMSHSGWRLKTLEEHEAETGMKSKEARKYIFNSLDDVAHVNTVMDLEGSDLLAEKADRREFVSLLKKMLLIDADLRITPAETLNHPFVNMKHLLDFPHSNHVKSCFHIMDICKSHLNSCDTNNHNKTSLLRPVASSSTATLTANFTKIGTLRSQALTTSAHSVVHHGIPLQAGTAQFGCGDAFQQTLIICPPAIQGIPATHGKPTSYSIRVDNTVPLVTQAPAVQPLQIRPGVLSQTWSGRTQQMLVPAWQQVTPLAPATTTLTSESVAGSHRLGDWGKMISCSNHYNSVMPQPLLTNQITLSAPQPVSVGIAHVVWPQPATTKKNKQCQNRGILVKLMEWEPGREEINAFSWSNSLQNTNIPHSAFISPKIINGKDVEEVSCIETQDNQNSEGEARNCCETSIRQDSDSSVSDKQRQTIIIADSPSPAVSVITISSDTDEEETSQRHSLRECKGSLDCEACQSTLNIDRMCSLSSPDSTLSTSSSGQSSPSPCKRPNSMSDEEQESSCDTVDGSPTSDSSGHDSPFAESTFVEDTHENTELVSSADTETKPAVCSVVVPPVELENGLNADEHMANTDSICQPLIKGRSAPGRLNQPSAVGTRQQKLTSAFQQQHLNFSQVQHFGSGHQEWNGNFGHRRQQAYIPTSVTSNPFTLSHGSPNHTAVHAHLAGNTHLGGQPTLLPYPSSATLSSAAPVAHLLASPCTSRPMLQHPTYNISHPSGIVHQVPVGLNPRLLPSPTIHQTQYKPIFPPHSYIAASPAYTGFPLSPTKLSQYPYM
Method in brief: as §1

[4] = molecular target: T4, MAP3K1 (Homo sapiens, UniProt Q13233)
T4 construct: purchased DiscoveRx KINOMEscan
Method in brief: as §1

[5] = molecular target: T5, RIPK5 (Homo sapiens, UniProt Q6XUX3)
T5 construct: purchased DiscoveRx KINOMEscan
Method in brief: as §1

[6] = molecular target: T6, MYLK (Homo sapiens, UniProt Q15746)
T6 construct: purchased DiscoveRx KINOMEscan
Method in brief: as §1

[7] = molecular target: T7, CDKL2 (Homo sapiens, UniProt Q92772)
T7 construct: purchased DiscoveRx KINOMEscan
T7 sequence (Q92772 whole entry): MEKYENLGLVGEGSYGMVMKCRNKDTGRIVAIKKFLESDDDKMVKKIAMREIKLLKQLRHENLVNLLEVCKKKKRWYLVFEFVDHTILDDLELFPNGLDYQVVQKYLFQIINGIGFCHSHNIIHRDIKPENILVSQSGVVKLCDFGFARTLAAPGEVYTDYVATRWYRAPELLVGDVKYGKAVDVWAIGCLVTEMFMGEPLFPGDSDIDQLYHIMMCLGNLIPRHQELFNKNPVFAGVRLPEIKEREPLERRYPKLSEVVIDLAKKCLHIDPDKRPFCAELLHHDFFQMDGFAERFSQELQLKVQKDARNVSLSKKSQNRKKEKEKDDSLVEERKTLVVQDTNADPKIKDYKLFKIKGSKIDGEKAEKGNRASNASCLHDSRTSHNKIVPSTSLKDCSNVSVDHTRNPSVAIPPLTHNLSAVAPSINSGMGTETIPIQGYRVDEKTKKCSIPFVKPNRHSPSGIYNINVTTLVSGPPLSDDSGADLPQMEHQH
Method in brief: as §1

[8] = molecular target: T8, PDPK1 (Homo sapiens, UniProt O15530)
T8 construct: purchased DiscoveRx KINOMEscan
T8 sequence (O15530 whole entry): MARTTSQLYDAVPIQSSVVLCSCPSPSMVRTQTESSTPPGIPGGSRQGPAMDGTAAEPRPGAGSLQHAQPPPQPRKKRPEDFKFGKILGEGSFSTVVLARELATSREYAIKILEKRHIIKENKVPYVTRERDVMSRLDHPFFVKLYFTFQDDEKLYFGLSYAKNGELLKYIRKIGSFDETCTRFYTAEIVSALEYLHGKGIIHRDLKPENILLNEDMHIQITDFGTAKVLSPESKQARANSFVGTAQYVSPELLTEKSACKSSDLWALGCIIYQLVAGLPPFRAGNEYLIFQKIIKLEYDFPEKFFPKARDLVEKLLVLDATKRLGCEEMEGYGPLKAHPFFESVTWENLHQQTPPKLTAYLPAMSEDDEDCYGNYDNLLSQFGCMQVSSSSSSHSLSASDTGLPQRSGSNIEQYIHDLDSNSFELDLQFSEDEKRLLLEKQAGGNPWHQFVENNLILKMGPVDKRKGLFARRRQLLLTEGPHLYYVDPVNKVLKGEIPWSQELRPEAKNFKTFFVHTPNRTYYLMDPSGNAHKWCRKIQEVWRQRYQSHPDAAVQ
Method in brief: as §1

[9] = molecular target: T9, PIM3 (Homo sapiens, UniProt Q86V86)
T9 construct: purchased DiscoveRx KINOMEscan
Method in brief: as §1

[10] = molecular target: T10, PCTK3 (Homo sapiens, UniProt Q07002)
T10 construct: purchased DiscoveRx KINOMEscan
T10 sequence (Q07002 whole entry): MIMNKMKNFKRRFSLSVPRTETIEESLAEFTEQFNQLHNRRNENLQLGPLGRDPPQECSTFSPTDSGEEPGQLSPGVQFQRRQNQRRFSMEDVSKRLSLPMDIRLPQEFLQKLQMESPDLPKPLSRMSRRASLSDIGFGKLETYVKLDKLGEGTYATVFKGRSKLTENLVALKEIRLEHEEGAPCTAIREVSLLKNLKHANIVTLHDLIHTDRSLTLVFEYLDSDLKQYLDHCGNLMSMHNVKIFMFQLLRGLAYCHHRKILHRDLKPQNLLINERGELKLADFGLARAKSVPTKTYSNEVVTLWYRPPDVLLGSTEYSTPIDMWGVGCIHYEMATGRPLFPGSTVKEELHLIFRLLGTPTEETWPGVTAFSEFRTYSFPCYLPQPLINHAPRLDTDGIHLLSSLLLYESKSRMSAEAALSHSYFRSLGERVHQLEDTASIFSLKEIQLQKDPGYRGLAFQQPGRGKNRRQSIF
Method in brief: as §1

[11] = molecular target: T11, SNRK (Homo sapiens, UniProt Q9NRH2)
T11 construct: purchased DiscoveRx KINOMEscan
Method in brief: as §1

[12] = molecular target: T12, ICK (Homo sapiens, UniProt Q9UPZ9)
T12 construct: purchased DiscoveRx KINOMEscan
Method in brief: as §1

[13] = molecular target: T13, LATS2 (Homo sapiens, UniProt Q9NRM7)
T13 construct: purchased DiscoveRx KINOMEscan
Method in brief: as §1

[14] = molecular target: T14, ULK3 (Homo sapiens, UniProt Q6PHR2)
T14 construct: purchased DiscoveRx KINOMEscan
T14 sequence (Q6PHR2 whole entry): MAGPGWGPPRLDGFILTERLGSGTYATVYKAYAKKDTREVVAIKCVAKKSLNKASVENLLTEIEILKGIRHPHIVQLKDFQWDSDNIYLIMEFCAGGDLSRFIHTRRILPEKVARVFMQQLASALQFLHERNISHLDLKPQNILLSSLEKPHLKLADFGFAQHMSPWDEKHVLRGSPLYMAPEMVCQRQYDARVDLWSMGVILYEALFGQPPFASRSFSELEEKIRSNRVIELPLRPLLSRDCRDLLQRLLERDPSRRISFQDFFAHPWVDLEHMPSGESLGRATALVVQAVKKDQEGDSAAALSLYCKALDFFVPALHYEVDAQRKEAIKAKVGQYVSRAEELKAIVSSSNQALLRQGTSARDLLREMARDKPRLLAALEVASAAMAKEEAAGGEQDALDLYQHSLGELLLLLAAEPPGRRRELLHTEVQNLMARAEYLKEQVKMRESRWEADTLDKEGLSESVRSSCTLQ
Method in brief: as §1

[15] = molecular target: T15, ABL1-nonphosphorylated (Homo sapiens, UniProt P00519)
T15 construct: purchased DiscoveRx KINOMEscan
Method in brief: as §1

[16] = molecular target: T16, DYRK1A (Homo sapiens, UniProt Q13627)
T16 construct: purchased DiscoveRx KINOMEscan
Method in brief: as §1

[17] = molecular target: T17, SLK (Homo sapiens, UniProt Q9H2G2)
T17 construct: purchased DiscoveRx KINOMEscan
Method in brief: as §1

[18] = molecular target: T18, MEK4 (Homo sapiens, UniProt P45985)
T18 construct: purchased DiscoveRx KINOMEscan
Method in brief: as §1

[19] = molecular target: T19, MELK (Homo sapiens, UniProt Q14680)
T19 construct: purchased DiscoveRx KINOMEscan
Method in brief: as §1

[20] = molecular target: T20, PCTK2 (Homo sapiens, UniProt Q00537)
T20 construct: purchased DiscoveRx KINOMEscan
T20 sequence (Q00537 whole entry): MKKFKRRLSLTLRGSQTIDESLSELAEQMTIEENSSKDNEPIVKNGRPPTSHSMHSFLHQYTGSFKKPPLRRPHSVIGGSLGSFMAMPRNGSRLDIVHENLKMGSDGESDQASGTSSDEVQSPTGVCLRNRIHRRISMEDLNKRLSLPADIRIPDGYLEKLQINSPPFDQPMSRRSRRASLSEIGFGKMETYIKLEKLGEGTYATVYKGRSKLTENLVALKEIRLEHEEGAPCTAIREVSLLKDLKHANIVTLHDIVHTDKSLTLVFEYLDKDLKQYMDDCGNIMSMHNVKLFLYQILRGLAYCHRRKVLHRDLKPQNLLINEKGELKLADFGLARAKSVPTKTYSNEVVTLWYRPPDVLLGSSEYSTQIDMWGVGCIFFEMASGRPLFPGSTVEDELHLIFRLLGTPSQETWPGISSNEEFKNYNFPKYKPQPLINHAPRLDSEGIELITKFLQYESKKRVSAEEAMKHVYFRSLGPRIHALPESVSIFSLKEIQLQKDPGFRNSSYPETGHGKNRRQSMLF
Method in brief: as §1

[21] = molecular target: T21, FGFR2 (Homo sapiens, UniProt P21802)
T21 construct: purchased DiscoveRx KINOMEscan
Method in brief: as §1

[22] = molecular target: T22, MYO3B (Homo sapiens, UniProt Q8WXR4)
T22 construct: purchased DiscoveRx KINOMEscan
Method in brief: as §1

[23] = molecular target: T23, CIT (Homo sapiens, UniProt O14578)
T23 construct: purchased DiscoveRx KINOMEscan
Method in brief: as §1

[24] = molecular target: T24, ULK2 (Homo sapiens, UniProt Q8IYT8)
T24 construct: purchased DiscoveRx KINOMEscan
Method in brief: as §1

[25] = molecular target: T25, DDR2 (Homo sapiens, UniProt Q16832)
T25 construct: purchased DiscoveRx KINOMEscan
Method in brief: as §1

[26] = molecular target: T26, p38-gamma (Homo sapiens, UniProt P53778)
T26 construct: purchased DiscoveRx KINOMEscan
Method in brief: as §1

[27] = molecular target: T27, TAOK1 (Homo sapiens, UniProt Q7L7X3)
T27 construct: purchased DiscoveRx KINOMEscan
Method in brief: as §1

[28] = molecular target: T28, RSK2(Kin.Dom.1-N-terminal) (Homo sapiens, UniProt P51812)
T28 construct: RSK2(Kin.Dom.1-N-terminal); purchased DiscoveRx KINOMEscan
T28 sequence (P51812 1-397 limits assumed): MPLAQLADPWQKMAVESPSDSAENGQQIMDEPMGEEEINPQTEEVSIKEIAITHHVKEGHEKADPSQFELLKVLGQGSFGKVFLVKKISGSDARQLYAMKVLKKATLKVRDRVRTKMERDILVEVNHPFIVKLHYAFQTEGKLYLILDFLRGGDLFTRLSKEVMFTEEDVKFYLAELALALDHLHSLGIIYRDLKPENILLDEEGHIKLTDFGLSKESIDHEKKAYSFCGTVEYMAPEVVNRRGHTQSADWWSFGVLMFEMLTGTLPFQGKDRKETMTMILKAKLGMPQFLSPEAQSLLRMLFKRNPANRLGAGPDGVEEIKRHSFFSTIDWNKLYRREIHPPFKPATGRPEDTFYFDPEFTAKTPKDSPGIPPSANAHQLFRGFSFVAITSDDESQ
Method in brief: as §1

[29] = molecular target: T29, AURKC (Homo sapiens, UniProt Q9UQB9)
T29 construct: purchased DiscoveRx KINOMEscan
Method in brief: as §1

[30] = molecular target: T30, AXL (Homo sapiens, UniProt P30530)
T30 construct: purchased DiscoveRx KINOMEscan
Method in brief: as §1

T1 sequence (P23458 561-860 limits assumed): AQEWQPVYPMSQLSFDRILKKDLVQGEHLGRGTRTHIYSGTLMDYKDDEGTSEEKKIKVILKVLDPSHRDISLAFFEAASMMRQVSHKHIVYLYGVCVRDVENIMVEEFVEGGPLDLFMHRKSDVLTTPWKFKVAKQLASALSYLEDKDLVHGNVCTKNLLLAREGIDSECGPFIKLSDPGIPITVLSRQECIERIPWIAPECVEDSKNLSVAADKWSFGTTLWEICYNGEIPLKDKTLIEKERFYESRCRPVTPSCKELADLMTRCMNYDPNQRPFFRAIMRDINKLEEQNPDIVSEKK

`Cc1ccc(C2=Nc3cccnc3S(=O)(=O)c3ccccc32)cc1` [TBPT, 6-(p-tolyl)benzo[f] pyrido[2,3-b][1,4] thiazepine 11,11-dioxide] showed a remaining binding at 5 µM ([1]; 5 μM) of 100%, a remaining binding at 10 µM ([1]; 10 μM) of 100% and a remaining binding at 5 µM ([2]; 5 μM) of 97%. It also gave a remaining binding at 10 µM ([2]; 10 μM) of 100%, a remaining binding at 5 µM ([3]; 5 μM) of 100% and a remaining binding at 10 µM ([3]; 10 μM) of 100%. The remaining binding at 5 µM ([4]; 5 μM) was 100%, the remaining binding at 10 µM ([4]; 10 μM) was 100% and the remaining binding at 5 µM ([5]; 5 μM) was 58%. For the same compound, the remaining binding at 10 µM ([5]; 10 μM) was 83%, the remaining binding at 5 µM ([6]; 5 μM) was 100% and the remaining binding at 10 µM ([6]; 10 μM) was 81%. The remaining binding at 5 µM ([7]; 5 μM) was 95%, the remaining binding at 10 µM ([7]; 10 μM) was 100% and the remaining binding at 5 µM ([8]; 5 μM) was 100%. It also gave a remaining binding at 10 µM ([8]; 10 μM) of 100%, a remaining binding at 5 µM ([9]; 5 μM) of 96% and a remaining binding at 10 µM ([9]; 10 μM) of 100%. For the same compound, the remaining binding at 5 µM ([10]; 5 μM) was 82%, the remaining binding at 10 µM ([10]; 10 μM) was 100% and the remaining binding at 5 µM ([11]; 5 μM) was 100%. The remaining binding at 10 µM ([11]; 10 μM) was 100%, the remaining binding at 5 µM ([12]; 5 μM) was 100% and the remaining binding at 10 µM ([12]; 10 μM) was 100%. For the same compound, the remaining binding at 5 µM ([13]; 5 μM) was 100%, the remaining binding at 10 µM ([13]; 10 μM) was 100% and the remaining binding at 5 µM ([14]; 5 μM) was 100%. It also gave a remaining binding at 10 µM ([14]; 10 μM) of 100%, a remaining binding at 5 µM ([15]; 5 μM) of 89% and a remaining binding at 10 µM ([15]; 10 μM) of 100%. The remaining binding at 5 µM ([16]; 5 μM) was 88%, the remaining binding at 10 µM ([16]; 10 μM) was 100% and the remaining binding at 5 µM ([17]; 5 μM) was 100%. For the same compound, the remaining binding at 10 µM ([17]; 10 μM) was 86%, the remaining binding at 5 µM ([18]; 5 μM) was 82% and the remaining binding at 10 µM ([18]; 10 μM) was 100%. It also gave a remaining binding at 5 µM ([19]; 5 μM) of 100%, a remaining binding at 10 µM ([19]; 10 μM) of 100% and a remaining binding at 5 µM ([20]; 5 μM) of 100%. The remaining binding at 10 µM ([20]; 10 μM) was 89%, the remaining binding at 5 µM ([21]; 5 μM) was 93% and the remaining binding at 10 µM ([21]; 10 μM) was 100%. It also gave a remaining binding at 5 µM ([22]; 5 μM) of 100%, a remaining binding at 10 µM ([22]; 10 μM) of 100% and a remaining binding at 5 µM ([23]; 5 μM) of 98%. The remaining binding at 10 µM ([23]; 10 μM) was 97%, the remaining binding at 5 µM ([24]; 5 μM) was 91% and the remaining binding at 10 µM ([24]; 10 μM) was 92%. The remaining binding at 5 µM ([25]; 5 μM) was 100%, the remaining binding at 10 µM ([25]; 10 μM) was 99% and the remaining binding at 5 µM ([26]; 5 μM) was 100%. The remaining binding at 10 µM ([26]; 10 μM) was 88%, the remaining binding at 5 µM ([27]; 5 μM) was 100% and the remaining binding at 10 µM ([27]; 10 μM) was 100%. It also gave a remaining binding at 5 µM ([28]; 5 μM) of 98%, a remaining binding at 10 µM ([28]; 10 μM) of 100% and a remaining binding at 5 µM ([29]; 5 μM) of 85%. The remaining binding at 10 µM ([29]; 10 μM) was 96%, the remaining binding at 5 µM ([30]; 5 μM) was 98% and the remaining binding at 10 µM ([30]; 10 μM) was 100%.
